Literature values, collected in US20140107130A1, “Oral Solution Formulations of Aripiprazole” (Antrim Pharmaceuticals, LLC, priority 2012, published 2014).

Tests used:
[1] = room temperature
[2] = intramuscular (IM) injectable solution; many water-miscible co-solvent and water-immiscible solvent/co-solvent systems

Question: For `O=C1CCc2ccc(OCCCCN3CCN(c4cccc(Cl)c4Cl)CC3)cc2N1` [Aripiprazole], which aqueous solubility [1] is on record?
Answer: < 1 µg/mL

Question: What about the “tissue irritation at the muscular site” value [2] of the same compound?
Answer: unacceptable (moderate to severe) tissue irritation
